Results published in patent publication US10766927B2, “Peptides that stimulate subcutaneous adipogenesis” (THE REGENTS OF THE UNIVERSITY OF CALIFORNIA, priority 2012, dated 2020).

Columns and labels:
[1] = test system: Pre-adipocyte stem cells including bone marrow mesenchymal stem cells and fibroblasts; assay: Assay 1 to measure adipogenesis (IBMX/dexamethasone initiation, Oil Red O or BODIPY staining); assay type: cell-based, rat; details: for adipogenic effect compared to KSEVSK 6-mer: assay 1 (FIG. 11); for Fold adipogenic induction vs. negative control / Specific activity (activity/1000 daltons): Assay 1
Protocol: Reagents: (1) 3-isobutyl-1-methylxanthine (IBMX) solution: 0.5M in DMSO; (2) Insulin solution: 10 mg/mL recombinant human insulin; (3) Dexamethasone solution in 10 mM in ethanol; (4) Oil Red 0 (0.36% in 60% isopropanol) or BODIPY dye (BODIPY 493/503 (4,4-difluoro-1,3,5,7-tetramethyl-4-bora-3a,4a-diaza-s-indacene-8-propionic acid, succinimidyl ester) from Invitrogen at 4-10 μM).
Adipogenesis Initiation Media: mesenchymal stem cell expansion media/0.5 mM IBMX/1 μM dexamethasone. Mesenchymal stem cell expansion media is commercially available from Millipore. The IBMX Solution was diluted 1:1000 and the Dexamethasone Solution was diluted 1:10,000 in expansion media containing antibiotics and antimycotics. The prepared media was stored at 4° C.
Adipogenesis Progression Media for positive control: mesenchymal stem cell expansion media/10 μg/mL insulin. The Insulin Solution was diluted 1:1000 in the expansion media and stored at 4° C.
Experimental Adipogenesis Progression Media: mesenchymal stem cell expansion media/1-100 μg/mL RHAMM antagonist peptides.
Adipogenesis Maintenance Media: mesenchymal stem cell expansion media containing antibiotics and antimycotics.
Negative Control Media: DMEM/10% normal calf serum.
(§1) Pre-adipocyte stem cells including bone marrow mesenchymal stem cells and fibroblasts including reticular and papillary dermal fibroblasts were propagated using standard tissue culture methods. Cells were trypsinized to remove the cells from the substratum. The trypsin was neutralized and cells were counted using a hemocytometer. Cells were resuspended at 30,000 cells/mL in expansion media. […] of cell suspension was plated per well of 24-well plate, with several wells left empty for blank well staining.
Cells were incubated for 1-2 days until they reached confluency. Approximately 1.8 mL of media was removed from each well and replaced with 2 mL Adipogenesis Initiation Media. For negative control wells, expansion media only was used at this step and for subsequent media changes. For all media changes, media was replaced as gently as possible to avoid disturbing the monolayer.
Cells were incubated for 48 hours at 37° C., 5% CO2. 2 mL media was removed from each well, and replaced with 2 mL either positive control or experimental Adipogenesis Progression Media per well. Cells were again incubated for 48 hours at 37° C., 5% CO2. 2 mL of media was removed from each well and replaced with 2 mL Adipogenesis Maintenance Media per well. In addition, media was added to the empty wells reserved for blank well staining Cells were incubated for at least 48 hours at 37° C., 5% CO2. Media was replaced every 48-72 hours. Accumulation of intracellular lipid droplets continued for at least 5 days.
For quantification of Oil Red 0 staining, media was removed and cells were washed twice with PBS, using care to gently add the PBS. 0.5 mL Oil Red 0 solution was added per well of 24-well plate, including to the wells lacking cells, but containing media. Cells were incubated for 15 minutes at room temperature. The staining solution was then removed and wells were washed three times with 1 mL of phosphate buffered saline (PBS). In some experiments, following removal of the last wash, stained plates were scanned or photographed.
Adipogenesis was quantified using a spectrophotometer or fluorometer. 0.25 mL Dye Extraction Solution (isopropyl alcohol) was added per well, and the plate was set on an orbital shaker or platform rocker for 15-30 minutes. Extracted dye was transferred into a cuvette and absorbance was read in a spectrophotometer at visible range for oil red 0 or transferred to a 96-well plate and quantified in a plate reader.
For quantification of BODIPY dye uptake, media was removed and cells were washed twice with PBS, using care to gently add the PBS. Cells were then fixed in 3% paraformaldehyde, washed in PBS then incubated for 1 hour in the dark with the BODIPY solution, prepared in PBS. […]

[2] = test system: Pre-adipocyte stem cells, bone marrow mesenchymal stem cells and fibroblasts; assay: Assay 2 to measure adipogenesis (dexamethasone/insulin/indomethacin induction, Oil Red O or BODIPY staining); assay type: cell-based; details: for adipogenic effect compared to KSEVSK 6-mer: assay 2 (FIG. 12); for Fold adipogenic induction vs. negative control / Specific activity (activity/1000 daltons): Assay 2
Protocol: The dexamethasone, insulin, and Oil Red 0 solutions were the same as described above for assay 1. Indomethacin Solution contained 10 mM indomethacin in methanol. The BODIPY 493/503 dye was used at a concentration of 4 μM.
Adipogenesis Maintenance Media was prepared as described above.
Adipogenesis Induction Media: To prepare 501 mL of Adipogenesis Induction Media, 50 μL of the 10 mM stock solution of dexamethasone, 500 μL of the 10 mg/ml stock solution of insulin, 5 ml of a 10 mM stock solution of indomethacin, and 5 mL of a 100× stock solution of penicillin and streptomycin were added to 490 mL of mesenchymal stem cell expansion media.
(§2) Pre-adipocyte stem cells, bone marrow mesenchymal stem cells and fibroblasts such as dermal reticular and papillary fibroblasts were propagated using standard tissue culture methods. Cells were trypsinized to remove cells from the substratum, the trypsin was neutralized, and cells were counted using a hemocytometer. Cells were resuspended at 60,000 cells/ml in low glucose DMEM containing 10% calf serum. 1 mL of cell suspension per well was plated in a 24-well plate, with several wells left empty for blank well staining.
Cells were incubated overnight and had reached confluency at this point. Approximately 1.8 ml of media was removed from each well and replaced with 2 ml Adipogenesis Induction Media. For negative control wells, expansion medium only was used at this step and for subsequent media changes. For all media changes, media was replaced as gently as possible to avoid disturbing the monolayer.
Cells were incubated for 3 days at 37° C., 5% CO2, media was replaced with fresh Adipogenesis Induction Media, and cells were incubated for an additional three days, at which point adipogenesis could be observed in about 5-10% of cells. Media was removed and replaced with 2 ml of maintenance medium containing either RHAMM antagonist peptides (experimental group) or insulin (concentration as in the induction medium used as positive control). Cells were incubated for 3 days at 37° C., 5% CO2.
Media was removed and BODIPY or Oil Red O staining was performed as described above for assay 1.

[3] = test system: bone marrow mesenchymal stem cells; assay: Adipogenesis in culture, assay 1 or 2 not specified; assay type: cell-based; details: for adipogenic activity (in words): truncation fragments, FIGS. 7-9, 13; for activity compared to KSEVSK hexamer: FIG. 13, doses 1, 5, 25 μg, absorbance at 520 nm
Text: The following assays were used to assess adipogenic activity of the peptides in the experiments described below in Example 2.
as §1, §2

[4] = test system: Pre-adipocytes (rat mesenchymal stem cells); assay: Adipogenic potential in 2D rat pre-adipocyte culture; assay type: cell-based; details: ranked on a scale of 0-5 with 5 the highest possible score; two-dimensional tissue culture
Protocol: (§3) Examples of the adipogenic effects of RHAMM antagonists (peptide B (SEQ ID NO: 2), peptide P15-1 (SEQ ID NO. 1), and the antibody to peptide B) are summarized in Table 1. Peptide P15-1, peptide B, and a RHAMM antibody were assayed for their effects on pre-adipocyte stem cells in culture and when injected into the dermis of aged rats. Reagents were ranked on a scale of 0-5 with 5 representing the highest possible score and a completely filled in Harvey ball. “2D” refers to two-dimensional tissue culture.

[5] = test system: nude guinea pigs; assay: Nude guinea pig model, injection in upper back and ear fat pad, H and E staining; assay type: in vivo; details: upper back and ear fat pad after injection; control collagen gel vehicle only
Protocol: Peptide B (SEQ ID NO: 2) was also tested for its effect in nude guinea pigs since their skin structure resembles human facial skin. In particular, the skin of this animal model is more similar to human skin than is rat skin, in that it is hairless and the keratinocyte layer is thicker than in the rat model. […] Thus, peptide B was effective in promoting adipogenesis in this nude guinea pig model.

[6] = test system: Rat skin; assay: Rat dermal skin model of adipogenesis (injection into the dermis); assay type: in vivo; details: for adipogenic potential, In vivo Rat skin: ranked on a scale of 0-5 with 5 the highest possible score, injected into the dermis of aged rats
Protocol: as §3
In FIGS. 5A and 5B, data are shown as a ratio of the area (“surface area”) of fat pads expressed as a ratio of experimental/control values.
The 6-mer (KSEVSK; SEQ ID NO: 3) was tested for adipogenic effect in rat skin in vivo. The results of this testing are shown in the photographs in FIG. 10.

[7] = test system: human Pre-adipocytes; assay: Adipogenic potential in 2D human pre-adipocyte culture; assay type: cell-based; details: ranked on a scale of 0-5 with 5 the highest possible score; two-dimensional tissue culture
Protocol: as §3

[8] = test system: mesenchymal stem cell; assay: Adipogenesis using a commercially available mesenchymal stem cell kit; assay type: cell-based

## ASEVSK
[1]
  adipogenic effect compared to KSEVSK 6-mer: reduced adipogenic effects
[2]
  adipogenic effect compared to KSEVSK 6-mer: reduced adipogenic effects

## KLKDENS
[3]
  adipogenic activity (in words): Only the SQLKSEVSK (SEQ ID NO: 44) fragment was found to be adipogenic

## KLKDENSQLKSEVSK [peptide B]
[4]
  adipogenic potential, 2D rat Pre-adipocytes (rat mesenchymal stem cells): 5
[5]
  subcutaneous fat deposition: increase in subcutaneous fat deposition
[6]; 25-50 μg/injection site
  fat accumulation in rat dermal skin model: induced significant fat accumulation
[6]; FIGS. 5A and 5B
  fat pad surface area, experimental/control: animal group with best effect: most effective in old females
[6]
  adipogenic potential, In vivo Rat skin: 5
[3]; bone marrow mesenchymal stem cells, depending upon the screening assay used (FIGS. 3B, 3C, 4)
  amount at which maximum adipogenic effect was obtained: 1 to 5 µg
[2]
  Fold adipogenic induction vs. negative control: 3.1
  Specific activity (activity/1000 daltons): 1.7 activity/1000 daltons
[7]
  adipogenic potential, 2D human Pre-adipocytes: 5

## KSEVS
[3]
  activity compared to KSEVSK hexamer: much less active
  adipogenic activity (in words): low level of adipogenic activity

## KSEVSA
[1]
  adipogenic effect compared to KSEVSK 6-mer: reduced adipogenic effects
[2]
  adipogenic effect compared to KSEVSK 6-mer: reduced adipogenic effects

## KSEVSK [6mer]
[6]; FIG. 10
  adipogenic effect in rat skin in vivo (fat pads): able to induce large fat pads, possibly larger than peptide B
[1]
  Fold adipogenic induction vs. negative control: 2.8
  Specific activity (activity/1000 daltons): 3.7 activity/1000 daltons
[3]
  adipogenic activity (in words): also found to be adipogenic
[2]
  Fold adipogenic induction vs. negative control: 4.2
  Specific activity (activity/1000 daltons): 5.6 activity/1000 daltons

## LKSEVSK [7mer]
[1]
  Fold adipogenic induction vs. negative control: 2
  Specific activity (activity/1000 daltons): 2.3 activity/1000 daltons
[3]
  adipogenic activity (in words): also found to be adipogenic
[2]
  Fold adipogenic induction vs. negative control: 3.0
  Specific activity (activity/1000 daltons): 3.4 activity/1000 daltons

## SEVSK
[3]
  activity compared to KSEVSK hexamer: much less active
  adipogenic activity (in words): low level of adipogenic activity

## SQLKSEVSK [9mer]
[1]
  Fold adipogenic induction vs. negative control: 2.4
  Specific activity (activity/1000 daltons): 2.1 activity/1000 daltons
[3]
  adipogenic activity (in words): found to be adipogenic
[2]
  Fold adipogenic induction vs. negative control: 3.0
  Specific activity (activity/1000 daltons): 2.6 activity/1000 daltons

## STMMSRSHK
[3]
  adipogenic activity (in words): has adipogenic activity

## STMMSRSHKTRSHHV [peptide P15-1]
[4]
  adipogenic potential, 2D rat Pre-adipocytes (rat mesenchymal stem cells): 2
[6]
  adipogenic potential, In vivo Rat skin: 2
[7]
  adipogenic potential, 2D human Pre-adipocytes: 2

B1: RHAMM carboxy-terminal sequence: RHAMM carboxy-terminal sequence aa681-794 produced as a recombinant protein (protein)
chain: LDAFEAEKQALLNEHGATQEQLNKIRDSYAQLLGHQNLKQKIKHVVKLKDENSQLKSEVSKLRSQLVKRKQNELRLQGELDKALGIRHFDPSKAFCHASKENFTPLKEGNPNCC
[8]
  promotion of adipogenesis: promoted adipogenesis
